The test system of one assay is EAhy-926. Kind of assay: Cell-mediated oxidation of LDL (MDA), EAhy-926 cells. It counts as cell-based. Particulars: 10 to 100 μM, 22 hours, FIG. 6. The procedure: The antioxidant capacity was evaluated by incubating ethylene-diaminetetraacetic acid free-LDL under sterile conditions with 5 μM Cu++ (100 μg Apo B/ml) in the presence of J774A.1 cells. Oxidation was stopped after 22 hours incubation by addition of butylated hydroxytoluene to the medium (final concentration 40 μM) dissolved in ethanol. To the incubated sample (0.250 ml), was added trichloroacetic acid (0.750 ml, 0.20% w/v) followed by of thiobarbituric acid (0.750 ml, 0.67% w/v). The samples were heated at 100° C. for 20 min, followed by cooling and centrifugation. Malonic dialdehyde equivalents were calculated using 1,1,3,3-tetramethoxypropane as the standard.
Following the procedure in Example 9A, the effects of lercanidipine on cell-mediated oxidation were studied with a different cell line which shares many of the properties of endothelial cells (EAhy-926). (The cells were provided by: Prof. A. Catapano, Pharmacology Dept., Universita Statale--Milano.) (These or other endothelial cells can be obtained as described by C-J. S. Edgall et al., Proc. Nat. AcAd. Sci., 80: 3734-3737, (1983); and Gimbrone, M., Prog. Hemostasis Thromb., 3: 1-28, (1976)). The cells were treated with lercanidipine at a concentration of from about 10 to about 100 μM.

Assay [1] concerns LDL, isolated from human plasma. In words: Chemical (Cu++) oxidation of LDL, conjugated diene formation at 234 nm. It counts as biochemical. The arrangement: Lag time of LDL oxidation: unit not given here. The protocol: The ability of Lercanidipine to function as an antioxidant was evaluated by incubating LDL, isolated from human plasma, for 22 hours with an oxidizing agent (20 μM Cu++) in the presence of different concentrations of the test compounds (0.01 μM-50 μM). The LDL oxidation was followed by monitoring conjugated diene formation with a ultraviolet (UV) spectrometer at 234 nm.
The experimental conditions were as follows. LDL (d=1.019-1.063) were isolated from human pooled plasma by sequential ultracentrifugation at 4° C. and 40,000 rpm in a 50 Ti rotor, using a L5-50 ultracentrifuge (Beckman, Palo Alto, Calif.). The LDL were then dialyzed against 0.15 M NaCl containing 0.01% ethylenediaminetetraacetic acid pH 7.4, sterilized by filtration through a […] millipore filter and stored at 4° C. under nitrogen in the dark until use (up to 3 weeks). Before use, LDL were dialyzed against ethylenediaminetetraacetic acid free phosphate buffered saline, pH 7.4, on Sephadex G-25 columns (PD-10, Pharmacia Fine Chemicals, Uppsala, Sweden). Then the LDL were filtered through a sterile 0.22 μM filter. In a phosphate buffered saline (50 μg lipoprotein protein/ml), the LDL were oxidized by incubation at 25° C. with 20 μM CuSO4 for 3 hours. The lercanidipine solution was prepared as a 10^-2 M stock solution in methanol or ethanol and added as a methanol or ethanol solution (maximum 1% v/v) prior to addition of the copper solution. The effect of lercanidipine on the oxidation of LDL was determined by continuous monitoring of the formation of conjugated dienes by recording the increase in the absorbance at 234 nm at 5 min intervals during a three hour period, against a phosphate buffered saline blank, using a UV spectrophotometer (Beckman DU 640) equipped with a continuous reading and an automatic 6-cell changer. The time prior to the onset of oxidation (lag time) was calculated as the intercept between the line of the maximum slope of the propagation phase and the x-axis.

In assay [2] the test system is mouse monocyte-macrophage cells (ATCC TIB 67 J774A.1). Kind of assay: Cell-mediated oxidation of LDL (MDA, thiobarbituric acid assay), J774A.1 cells. The class given is cell-based. Particulars: 30 μM, after 10 hours incubation, FIG. 7. The procedure: The antioxidant capacity of the compounds of the invention, on cell-mediated oxidation, was evaluated by incubating LDL and mouse monocyte-macrophage cells (ATCC TIB 67 J774A.1) with CuSO4 solution in the presence of […], lercanidipine or one of its enantiomers at several concentrations. The inhibition of formation of aldehydic breakdown products, i.e., secondary metabolites of lipid peroxidation, malonic dialdehyde (MDA), was assessed by detection of dialdehyde formation using the thiobarbituric acid assay (A. N. Hanna et al., Biochem. Pharmacol. 45: 753 (1993)).
The antioxidant capacity was evaluated by incubating ethylene-diaminetetraacetic acid free-LDL under sterile conditions with 5 μM Cu++ (100 μg Apo B/ml) in the presence of J774A.1 cells. Oxidation was stopped after 22 hours incubation by addition of butylated hydroxytoluene to the medium (final concentration 40 μM) dissolved in ethanol. […] Malonic dialdehyde equivalents were calculated using 1,1,3,3-tetramethoxypropane as the standard.
In experiments 9A and 9B, the cell-mediated oxidation effects of lercanidipine were investigated after incubation for 22 hours. […] Samples were withdrawn from the incubation medium and the oxidation product, MDA, measured as described above.

For the next assay, the system named is rat myocytes. Kind of assay: Arterial myocyte migration, micro chemotaxis chamber with fibrinogen. The following applies: 5 hours, fibrinogen 600 μg/ml, FIG. 2. It counts as cell-based. The procedure: Migration of rat myocytes was examined using a 48-well micro chemotaxis chamber (Neuro-Probe, USA). Freshly trypsinized myocytes prepared according to the procedure in Example 4A were suspended in a medium supplemented with 5% fetal calf serum (assay medium). The lower wells, containing 27 μl of the assay medium that included fibrinogen (600 μg/ml) as chemotactic agent, were covered with a polyvinylpyrrolidone-free polycarbonate filter ([…]). Fifty μl of the cell suspension (1×10^6 cells/ml) were placed in the upper compartment with the tested compounds. Incubation was carried out for 5 hours at 37° C. in an atmosphere of 95% air and 5% CO2.
After incubation the filter was removed from the chamber and non-migrated cells were scraped from the upper surface, and the filters washed with phosphate buffered saline three times. The filters were stained with Diff-Quik (Merz-Dade AG, Switzerland). The number of myocytes per 100×high power field that had migrated to the lower surface of the filters was determined microscopically. Six high power fields were counted per sample and the results were averaged.

For the compound `COC(=O)C1=C(C)NC(C)=C(C(=O)OC(C)(C)CN(C)CCC(c2ccccc2)c2ccccc2)C1c1cccc([N+](=O)[O-])c1` (racemic) [LE, methyl 1,1,N-trimethyl-N-(3,3-diphenylpropyl)-2-aminoethyl 1,4-dihydro-2,6-dimethyl-4-(3-nitrophenyl)-pyridine-3,5-dicarboxylate], the “LDL oxidation (nanomoles of MDA produced)” value with EAhy-926 is reported as “reduced the oxidation of LDL”. In addition, the “Lag time of LDL oxidation” value in assay [1] (0.5 μM, 20 μM Cu++) is recorded as 45.2 ± 3.7; in assay [1] (1.0 μM, 20 μM Cu++), 49.8 ± 4.7; in assay [1] (2.5 μM, 20 μM Cu++, P < 0.05) it was 53.6 ± 3.3; in assay [1] (5.0 μM, 20 μM Cu++, P < 0.01), 73.2 ± 4.8; in assay [1] (10.0 μM, 20 μM Cu++, P < 0.01) it was 112.7 ± 5.2. In addition, the “increase of the lag time for LDL oxidation” value in assay [1] (10 μM) is listed as “more than 2 times”. Further, the “concentrations significantly suppressing the onset of LDL oxidation” value in assay [1] (20 μM Cu++) was “greater than or equal to 2.5 μM”. For the same compound, the “potency relative to lacidipine (LDL oxidation)” value in assay [1] (assays herein) is given as “one order of magnitude higher”. Besides, the “inhibition of lipid oxidation (MDA) over time” value in assay [2] is listed as “very high inhibition of lipid oxidation”.

As for `COC(=O)C1=C(C)NC(C)=C(C(=O)OC(C)(C)CN(C)CCC(c2ccccc2)c2ccccc2)[C@@H]1c1cccc([N+](=O)[O-])c1` [(R)-LE, (R)-(-)METHYL 1,1-N-TRIMETHYL-N-(3,3-DIPHENYLPROPYL)-2-AMINOETHYL 1,4-DIHYDRO-2,6-DIMETHYL-4-(3-NITROPHENYL)PYRIDINE-3,5-DICARBOXYLATE], the “inhibition of myocytes migration” value in the assay with rat myocytes is “most pronounced effect”.

The values above are taken from US5912351A, “Anhydrous 1,4-Dihydropyridines and salts thereof” (Recordati, S.A. Chemical and Pharmaceutical Company, priority 1995, dated 1999).
